The values below come from patent publication EP0558245A1, “Heterobicyclic compounds as antagogists of alpha-1 adrenergic and SHT1A receptors” (priority 1992, dated 1993).

Read-outs that look alike come from different tables or passages of the source.

The target of data set [1] is T1, 5HT1A receptors (Rattus norvegicus, UniProt P19327).
T1 construct: Rat hippocampi were homogenized; from tissue; host or cells: rat hippocampus membranes
T1 sequence (P19327 1-422): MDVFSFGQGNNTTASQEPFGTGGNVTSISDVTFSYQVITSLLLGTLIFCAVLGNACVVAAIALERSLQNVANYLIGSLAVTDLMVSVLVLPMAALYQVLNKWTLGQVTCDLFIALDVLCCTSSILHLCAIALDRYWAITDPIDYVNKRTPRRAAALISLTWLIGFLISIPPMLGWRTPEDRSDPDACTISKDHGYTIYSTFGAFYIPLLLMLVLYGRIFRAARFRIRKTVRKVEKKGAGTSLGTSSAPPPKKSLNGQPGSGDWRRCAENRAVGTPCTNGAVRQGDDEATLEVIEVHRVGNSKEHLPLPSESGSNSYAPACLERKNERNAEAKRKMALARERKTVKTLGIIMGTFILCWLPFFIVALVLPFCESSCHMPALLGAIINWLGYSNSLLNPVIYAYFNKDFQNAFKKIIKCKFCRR
The data set is described as follows: [3H]8-OH-DPAT binding (5HT1A receptors), rat hippocampus membranes. The note with it: rat hippocampus crude membranes, [3H]8-OH-DPAT 1.0 nM, 25°C 30 min; read-out: Receptor Binding IC50 (nM) 5-HT1a.

Data set [2] addresses α₁ receptors. Put plainly: [3H]prazosin binding (α1 receptors), rat cerebral cortex membranes. The note with it: rat cerebral cortex crude membranes, [3H]prazosin 0.35 nM, 25°C 30 min; read-out: Receptor Binding IC50 (nM) α1.
Procedure: Rat cerebral cortices were homogenized in 50 volumes of original wet weight of ice-cold 50 mM Tris-HCl buffer pH 7.4. The homogenates were centrifuged at 48,000 x g for 10 minutes, and the pellets were resuspended in the same volume of ice-cold buffer, centrifuged and resuspended two more times. The final pellets obtained were resuspended in the same volume of buffer and incubated according to the conditions reported in the table below.
The incubations were terminated after the appropriate time (see table) by rapid filtration through Whatman GF/B filters using a Brandel cell harvester. The filters were washed twice with 15 ml of ice-cold buffer (see table). The radioactivity retained on the filters was determined by liquid scintillation counting. Nonspecific binding (which amounted generally to 10-30%) was evaluated by adding high concentrations of the specific displacers (see table). All the compounds were initially tested at 1x10⁻⁶ M concentration, and in the presence of significant displacing activity, a complete competition curve was generated (down to a concentration of 10⁻¹¹ M). All the samples were run in triplicate.
The nature of data set [3]: Acute toxicity in mice after intraperitoneal and oral administration. The note with it: mouse, in vivo, female albino Swiss mice, mortality recorded 7 days after administration. The method, then: Male Sprague Dawley rats [Crl: CD' BR] of 200-300 g b.w., female Albino Swiss mice [Crl: CD-1 (ICR) BR] 20-30 g b.w., and male Beagle dogs (10-12 kg b.w.) were obtained from Charles River, Italy and Nossan (Correzzana, Milan, Italy), respectively. Animals were housed with free access to food and water and maintained on forced light-dark cycle at 22-24°C until the day of experiments.
The acute toxicity of synthesized compounds was evaluated in female albino Swiss mice after intraperitoneal and oral administration. Four logarithmic scaled doses of the compounds were dissolved or suspended in 0.5% Methocel and administered in a volume of 10 ml/kg to groups of 4 mice/dose. Mortality was recorded 7 days after the administration. Data analysis: the LD₅₀ values and their fiducial limits were calculated according to the method of Weil (Biometrics, 8, 249, 1952).

Consider `COc1ccccc1N1CCN(CCCNC(=S)c2cccc3c(=O)c(C)c(-c4ccccc4)oc23)CC1` [Example 83, 8-{3-[4-(2-methoxyphenyl)-1-piperazinyl]-propylthiocarbamoyl}-3-methyl-4-oxo-2-phenyl-4H-1-benzopyran methanesulphonate], for which the figures for the IC50 in data set [1] and in data set [2] were 5 nM and 30 nM, respectively.

With `COc1ccc(-c2oc3c(C(=O)NCCCN4CCN(c5ccccc5OC)CC4)cccc3c(=O)c2C)cc1` [Example 110, 8-{3-[4-(2-methoxyphenyl)-1-piperazinyl]-propylcarbamoyl}-2-(4-methoxyphenyl)-3-methyl-4-oxo-4H-1-benzopyran], the IC50 worked out at 15 nM in data set [1] and 26 nM in data set [2]. For `COc1ccccc1N1CCN(CCCN(OC2CCCCO2)C(=O)c2cccc3c(=O)c(C)c(-c4ccccc4)oc23)CC1` (centres unmarked) [Example 68, 8-{N-(2-tetrahydropyranyloxy)-3-[4-(2-methoxyphenyl)-1-piperazinyl]-propylcarbamoyl}-3-methyl-4-oxo-2-phenyl-4H-1-benzopyran methanesulphonate hemihydrate], in that order: 13 nM and 29 nM.

For the molecule `COc1ccccc1N1CCN(CCCNC(=O)c2cccc3c(=O)c(C)c(-c4ccc(C(F)(F)F)cc4)oc23)CC1` [Example 99, 8-{3-[4-(2-methoxyphenyl)-1-piperazinyl]-propylcarbamoyl}-3-methyl-4-oxo-2-(4-trifluoromethylphenyl)-4H-1-benzopyran methanesulphonate sesquihydrate], the IC50 in data set [1] worked out at 5 nM; in data set [2] it was 44 nM.

Take `COc1ccccc1OCCCNCCCNC(=O)c1cccc2c(=O)c(C)c(-c3ccccc3)oc12` [Example 74, 8-{3-[3-(2-methoxyphenoxy)-propylamino]-propylcarbamoyl}-3-methyl-4-oxo-2-phenyl-4H-1-benzopyran methanesulphonate hemihydrate]: the IC50 was found to be 482 nM in data set [1] and 178 nM in data set [2]. Consider `COc1ccccc1N1CCN(CCCNC(=O)c2cccc3c(=O)c(C)c(C4CCCCC4)oc23)CC1` [Example 104, 8-{3-[4-(2-methoxyphenyl)-1-piperazinyl]-propylcarbamoyl}-2-cyclohexyl-3-methyl-4-oxo-4H-1-benzopyran], for which the IC50 in data set [1] was determined as 15 nM; in data set [2] it was 9 nM. The corresponding values for `CSc1ccccc1OCCNCCCNC(=O)c1cccc2c(=O)c(C)c(-c3ccccc3)oc12` [Example 75, 8-{3-[2-(2-methylthiophenoxy)-ethylamino]-propylcarbamoyl}-3-methyl-4-oxo-2-phenyl-4H-1-benzopyran methanesulphonate] are 15 nM and 147 nM. For `COc1ccccc1N1CCN(CCCN(C(C)=O)C(=O)c2cccc3c(=O)c(C)c(-c4ccccc4)oc23)CC1` [Example 81, 8-{N-acetyl-3-[4-(2-methoxyphenyl)-1-piperazinyl]-propylcarbamoyl}-3-methyl-4-oxo-2-phenyl-4H-1-benzopyran], in that order: 81 nM and 13 nM. For `COc1ccccc1N1CCN(CCCNC(=O)c2cccc3c(=O)cc(-c4ccccc4)oc23)CC1` [Example 86, 8-{3-[4-(2-methoxyphenyl)-1-piperazinyl]-propylcarbamoyl}-4-oxo-2-phenyl-4H-1-benzopyran methanesulphonate . ¼ H₂O], in that order: 20 nM and 48 nM. For the molecule `COc1ccccc1N1CCN(CCCNC(=O)c2cccc3c(=O)ccoc23)CC1` [Example 88, 8-{3-[4-(2-methoxyphenyl)-1-piperazinyl]-propylcarbamoyl}-4-oxo-4H-1-benzopyran methanesulphonate . 1.25 H₂O], the IC50 in data set [1] came out at 11 nM; in data set [2] it was 216 nM. The corresponding values for `COc1ccccc1N1CCN(CCCCS(=O)(=O)c2cccc3c(=O)c(C)c(-c4ccccc4)oc23)CC1` [Example 84, 8-{4-[4-(2-methoxyphenyl)-1-piperazinyl]-butylsulphonyl}-3-methyl-4-oxo-2-phenyl-4H-1-benzopyran methanesulphonate . ¼ H₂O] are 2 nM and 5 nM. The corresponding values for `COc1ccccc1N1CCN(CCCNC(=O)c2cc(N)cc3c(=O)c(C)c(-c4ccccc4)oc23)CC1` [Example 94, 8-{3-[4-(2-methoxyphenyl)-1-piperazinyl]-propylcarbamoyl}-6-amino-3-methyl-4-oxo-2-phenyl-4H-1-benzopyran] are 66 nM and 39 nM. The corresponding values for `COc1ccccc1N1CC[N+]([O-])(CCCOc2cccc3c(=O)c(C)c(-c4ccccc4)oc23)CC1` [Example 43, 8-{3-[4-(2-methoxyphenyl)-1-oxo-1-piperazinyl]-propoxy}-3-methyl-4-oxo-2-phenyl-4H-1-benzopyran 1.75-hydrate] are greater than 1000 nM and 166 nM. `COc1ccccc1N1CCN(CCCNC(=O)c2c(OC)ccc3c(=O)c(C)c(-c4ccccc4)oc23)CC1` [Example 98, 8-{3-[4-(2-methoxyphenyl)-1-piperazinyl]-propylcarbamoyl}-7-methoxy-3-methyl-4-oxo-2-phenyl-4H-1-benzopyran]: the IC50 in data set [1] stood at 12 nM; in data set [2], 103 nM. For `COc1ccccc1N1CCN(CCCNC(=O)c2cccc3c(=O)c(CO)c(-c4ccccc4)oc23)CC1` [Example 85, 8-{3-[4-(2-methoxyphenyl)-1-piperazinyl]-propylcarbamoyl}-3-hydroxymethyl-4-oxo-2-phenyl-4H-1-benzopyran. 0.4 ethanol], in that order: 14 nM and 16 nM. The corresponding values for `COc1ccccc1N1CCN(CCCN(O)C(=O)c2cccc3c(=O)c(C)c(-c4ccccc4)oc23)CC1` [Example 71, 8-{N-hydroxy-3-[4-(2-methoxyphenyl)-1-piperazinyl]-propylcarbamoyl}-3-methyl-4-oxo-2-phenyl-4H-1-benzopyran methanesulphonate 0.25 H20] are 69 nM and 108 nM. For `COc1ccccc1N1CCN(CCNC(=O)Cc2cccc3c(=O)cc(-c4ccccc4)oc23)CC1` [Example 80, 8-{2-[4-(2-methoxyphenyl)-1-piperazinyl]-ethylcarbamoylmethyl}-4-oxo-2-phenyl-4H-1-benzopyran methanesulphonate hydrate], the figures for the IC50 in data set [1] and in data set [2] were 162 nM and 28 nM, respectively.

In the case of `Cc1c(-c2ccccc2)oc2c(C(=O)NCCCNCC3CCc4ccccc4C3=O)cccc2c1=O` (centres unmarked) [Example 65, 8-{3-[(3,4-dihydro-1-oxo-2H-naphthyl)-methylamino]-propylcarbamoyl}-3-methyl-4-oxo-2-phenyl-4H-1-benzopyran methanesulphonate], in data set [1], the IC50 stood at 26 nM.

With `COc1ccccc1N1CCN(CC/C=C/c2cccc3c(=O)c(C)c(-c4ccccc4)oc23)CC1` [Example 78, (E)-8-{4-[4-(2-methoxyphenyl)-1-piperazinyl]-1-butenyl}-3-methyl-4-oxo-2-phenyl-4H-1-benzopyran], the IC50 was 116 nM in data set [1] and 18 nM in data set [2]. The corresponding values for `COc1ccccc1N1CCN(CCCNC(=O)c2cccc3c(=O)c(C)c(C)oc23)CC1` [Example 102, 8-{3-[4-(2-methoxyphenyl)-1-piperazinyl]-propylcarbamoyl}-2,3-dimethyl-4-oxo-4H-1-benzopyran] are 18 nM and 56 nM. Consider `COc1ccccc1N1CCN(CCCC(=O)c2cccc3c(=O)c(C)c(-c4ccccc4)oc23)CC1.CS(=O)(=O)O`, for which the LD50 at 168 h is greater than 500 mg/kg in data set [3] (ip, intraperitoneal, read-out: Acute Toxicity in Mice LD50 (mg/kg) i.p.) and greater than 2000 mg/kg in data set [3] (oral, read-out: Acute Toxicity in Mice LD50 (mg/kg) p.o.).

Regarding `COc1ccccc1N1CCN(CCCNC(=O)c2cccc3c(=O)c(-c4ccccc4)coc23)CC1` [Example 64, 8-{3-[4-(2-methoxyphenyl)-1-piperazinyl]-propylcarbamoyl}-3-phenyl-4-oxo-4H-1-benzopyran dimethanesulphonate], the IC50 came out at 11 nM in data set [1] and 40 nM in data set [2]. The corresponding values for `COc1ccccc1N1CCN(CCCNC(=O)c2cccc3c(=O)cc(-c4ccccc4)sc23)CC1` [Example 107, 8-{3-[4-(2-methoxyphenyl)-1-piperazinyl]-propylcarbamoyl}-4-oxo-2-phenyl-4H-1-benzothiopyran] are 16 nM and 37 nM. For the molecule `COc1ccccc1N1CCN(CCCSc2cccc3c(=O)c(C)c(-c4ccccc4)oc23)CC1` [Example 46, 8-{3-[4-(2-methoxyphenyl)-1-piperazinyl]-propylthio}-3-methyl-4-oxo-2-phenyl-4H-1-benzopyran], the IC50 in data set [1] came to 23 nM; in data set [2], 86 nM.

What is called IC50 is the concentration that inhibits the measured activity by half.
